# Assay results as given in patent US9681664B2, “Macrocyclic picolinamides as fungicides” (Dow Agrosciences LLC, priority 2012, dated 2017).
# Where two headings read alike, the source gives them in different places.
# Key:
# Assay type in all cases: in vivo
# [1] = system: Puccinia triticina; Synonym: Puccinia recondite f. sp. tritici; test: Wheat brown rust (PUCCRT) disease control on wheat seedlings; conditions: Puccinia triticina; for pest or weed control at 121.5 g/ha: low volume application, 121.5 g/H
# Outline: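 Acetone solutions diluted in nine volumes of water with 110 ppm Triton X-100 sprayed to run-off on first-leaf Yuma wheat seedlings (track spray: EC with 0.1% Trycol 5941). Puccinia triticina spores inoculated before or after treatment; overnight dark dew at 22° C., 100% RH, then greenhouse at 24° C. for disease development.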
# [2] = system: Uncinula necator; test: Grape powdery mildew (UNCINE) disease control; conditions: Erysiphe necator, 24 h, High volume application, 1 Day Protectant, read-out: UNCINE 1 DP disease control
# Experimental: Technical grades of materials were dissolved in acetone, which were then mixed with nine volumes of water containing 110 ppm Triton X-100. The fungicide solutions were applied onto wheat seedlings using an automated booth sprayer to run-off. All sprayed plants were allowed to air dry prior to further handling. All fungicides were evaluated using the aforementioned method for their activity vs. all target diseases. Wheat leaf blotch and brown rust activity were also evaluated using track spray applications, in which case the fungicides were formulated as EC formulations, containing 0.1% Trycol 5941 in the spray solutions. Grape seedlings (variety Carignane) were grown in soil-less Metro mix, with one plant per pot, and used in the test when approximately one month old. Plants were inoculated 24 hr after fungicide treatment by shaking spores from infected leaves over test plants. Plants were maintained in a greenhouse set at 20° C. until disease was fully developed. Fungicide formulation, application and disease assessment on the sprayed leaves followed the procedures as described in the Example A.
# [3] = system: Cercospora beticola; test: Leaf spot of sugar beets (CERCBE) disease control; conditions: 24 h, 1 Day Protectant, high volume, read-out: Disease Control CERCBE 1 DP
# Experimental: Technical grades of materials were dissolved in acetone, which were then mixed with nine volumes of water containing 110 ppm Triton X-100. The fungicide solutions were applied onto wheat seedlings using an automated booth sprayer to run-off. All sprayed plants were allowed to air dry prior to further handling. All fungicides were evaluated using the aforementioned method for their activity vs. all target diseases. Wheat leaf blotch and brown rust activity were also evaluated using track spray applications, in which case the fungicides were formulated as EC formulations, containing 0.1% Trycol 5941 in the spray solutions. Sugar beet plants (variety HH88) were grown in soil-less Metro mix and trimmed regularly to maintain a uniform plant size prior to test. Plants were inoculated with a spore suspension 24 hr after fungicide treatments. Inoculated plants were kept in a dew chamber at 22° C. for 48 hr then incubated in a greenhouse set at 24° C. under a clear plastic hood with bottom ventilation until disease symptoms were fully expressed. Fungicide formulation, application and disease assessment on the sprayed leaves followed the procedures as described in the Example A.
# [4] = system: Phakopsora pachyrhizi; test: Asian soybean rust (PHAKPA) disease control; conditions: topical, high volume
# Outline: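 Compounds in acetone diluted with nine volumes water containing 0.011% Tween 20, sprayed to run-off on two-week-old Williams 82 soybean seedlings, inoculated 3 days before or 1 day after treatment. Plants held 24 h in dark dew room at 22 °C, 100% RH, then at 23 °C; disease severity scored on sprayed leaves.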
# [5] = system: Rhyncosporium secalis; test: Barley scald (RHYNSE) disease control; conditions: 24 h, High volume application, 1 Day Protectant, read-out: RHYNSE 1 DP disease control
# Experimental: Technical grades of materials were dissolved in acetone, which were then mixed with nine volumes of water containing 110 ppm Triton X-100. The fungicide solutions were applied onto wheat seedlings using an automated booth sprayer to run-off. All sprayed plants were allowed to air dry prior to further handling. All fungicides were evaluated using the aforementioned method for their activity vs. all target diseases. Wheat leaf blotch and brown rust activity were also evaluated using track spray applications, in which case the fungicides were formulated as EC formulations, containing 0.1% Trycol 5941 in the spray solutions. Barley seedlings (variety Harrington) were propagated in soil-less Metro mix, with each pot having 8 to 12 plants, and used in the test when first leaf was fully emerged. Test plants were inoculated by an aqueous spore suspension of Rhyncosporium secalis 24 hr after fungicide treatments. After inoculation the plants were kept in a dew room at 20° C. with 100% relative humidity for 48 hr. The plants were then transferred to a greenhouse set at 20° C. for disease to develop. Fungicide formulation, application and disease assessment on the sprayed leaves followed the procedures as described in the Example A.
# [6] = system: Magnaporthe grisea; Anamorph: Pyricularia oryzae; test: whole plant or invertebrate; conditions: 24 h, read-out: PYRIOR 1 DP disease control
# [7] = system: Glomerella lagenarium; Anamorph: Colletotrichum lagenarium; test: Cucumber anthracnose (COLLLA) disease control; conditions: Colletotrichum orbiculare, 24 h, 1 Day Protectant, high volume, read-out: Disease Control COLLLA 1 DP
# Experimental: Technical grades of materials were dissolved in acetone, which were then mixed with nine volumes of water containing 110 ppm Triton X-100. The fungicide solutions were applied onto wheat seedlings using an automated booth sprayer to run-off. All sprayed plants were allowed to air dry prior to further handling. All fungicides were evaluated using the aforementioned method for their activity vs. all target diseases. Wheat leaf blotch and brown rust activity were also evaluated using track spray applications, in which case the fungicides were formulated as EC formulations, containing 0.1% Trycol 5941 in the spray solutions. Cucumber seedlings (variety Bush Pickle) were propagated in soil-less Metro mix, with each pot having one plant, and used in the test when 12 to 14 days old. Test plants were inoculated with an aqueous spore suspension of Colletotrichum lagenarium 24 hr after fungicide treatments. After inoculation the plants were kept in a dew room at 22° C. with 100% relative humidity for 48 hr to permit spores to germinate and infect the leaf. The plants were then transferred to a growth room set at 22° C. for disease to develop. Fungicide formulation, application and disease assessment on the sprayed leaves followed the procedures as described in the Example A.
# [8] = 24 h, High volume application, 1 Day Protectant, read-out: PUCCRT 1DP disease control
# [9] = 72 h, High volume application, 3 Day Curative, read-out: PUCCRT 3DC disease control
# [10] = 24 h, 1 Day Protectant, read-out: Disease Control PHAKPA 1DP
# [11] = 72 h, 3 Day Curative, read-out: Disease Control PHAKPA 3DC
# [12] = 24 h, Wheat Brown Rust, 1 Day Protectant, read-out: Disease Control PUCCRT 1 DP 121.5 g/H
# [13] = 72 h, Wheat Brown Rust, 3 Day Curative, read-out: Disease Control PUCCRT 3 DC 121.5 g/H
# [14] = 24 h, Wheat Brown Rust, 1 Day Protectant, high volume application, read-out: Disease Control PUCCRT 1 DP 100 ppm
# [15] = 72 h, Wheat Brown Rust, 3 Day Curative, high volume application, read-out: Disease Control PUCCRT 3 DC 100 ppm
SMILES,"pest or weed control at 100 ppm [1, 8] [%]","pest or weed control at 100 ppm [1, 9] [%]",pest or weed control at 100 ppm [2] [%],pest or weed control at 100 ppm [3] [%],"pest or weed control at 25 ppm [4, 10] [%]","pest or weed control at 25 ppm [4, 11] [%]",pest or weed control at 100 ppm [5] [%],pest or weed control at 100 ppm [6] [%],pest or weed control at 100 ppm [7] [%],"pest or weed control at 121.5 g/ha [1, 12] [%]","pest or weed control at 121.5 g/ha [1, 13] [%]","pest or weed control at 100 ppm [1, 14] [%]","pest or weed control at 100 ppm [1, 15] [%]"
CCCO[C@H]1CCC[C@H](NC(=O)c2nccc(OC)c2OCOC(=O)C(C)C)C(=O)O[C@@H](C)[C@@H]1OC1CCCC1 [F154],80 to 100,80 to 100,0 to 80,80 to 100,80 to 100,80 to 100,80 to 100,80 to 100,80 to 100,–,–,–,–
C=C(C)CO[C@H]1CCC[C@H](NC(=O)c2nccc(OC)c2OCOC(C)=O)C(=O)O[C@@H](C)[C@@H]1OC [F250],–,–,0 to 80,0 to 80,0 to 80,< 0,0 to 80,80 to 100,0 to 80,0 to 80,80 to 100,–,–
CCCO[C@H]1CCC[C@H](NC(=O)c2nccc(OC)c2OCOC(C)=O)C(=O)O[C@@H](C)[C@@H]1OC1CCCC1 [F155],80 to 100,80 to 100,0 to 80,80 to 100,80 to 100,80 to 100,0 to 80,80 to 100,80 to 100,–,–,–,–
CCOCC(=O)OCOc1c(OC)ccnc1C(=O)N[C@H]1CCC[C@H](Oc2ccccc2)[C@@H](OC(=O)C2CCCC2)[C@H](C)OC1=O [F237],–,–,0 to 80,80 to 100,80 to 100,< 0,< 0,80 to 100,0 to 80,80 to 100,0 to 80,80 to 100,80 to 100
COc1ccnc(C(=O)N[C@H]2CCC[C@H](OCC(C)C)[C@@H](OC)[C@H](C)OC2=O)c1OCOC(C)=O [F251],–,–,0 to 80,0 to 80,80 to 100,0 to 80,0 to 80,80 to 100,80 to 100,80 to 100,80 to 100,–,–
COc1ccnc(C(=O)N[C@H]2CCC[C@H](OCC(C)C)[C@@H](OC)[C@H](C)OC2=O)c1OCOC(=O)C(C)C [F254],–,–,0 to 80,0 to 80,80 to 100,0 to 80,80 to 100,80 to 100,80 to 100,80 to 100,80 to 100,–,–
COc1ccnc(C(=O)N[C@H]2CCC[C@H](Oc3ccccc3)[C@@H](OC(=O)C3CC3)[C@H](C)OC2=O)c1OC(C)=O [F242],–,–,0 to 80,80 to 100,80 to 100,0 to 80,< 0,80 to 100,80 to 100,80 to 100,0 to 80,80 to 100,80 to 100
COc1ccnc(C(=O)N[C@H]2CCC[C@H](Oc3ccccc3)[C@@H](Oc3ccccc3)[C@H](C)OC2=O)c1OCOC(C)=O [F20],80 to 100,80 to 100,0 to 80,80 to 100,80 to 100,80 to 100,80 to 100,80 to 100,80 to 100,–,–,–,–
COc1ccnc(C(=O)N[C@H]2CCC[C@H](Oc3ccccc3)[C@@H](OCCCc3ccccc3)[C@H](C)OC2=O)c1OCOC(C)=O [F130],80 to 100,80 to 100,0 to 80,80 to 100,80 to 100,0 to 80,80 to 100,80 to 100,–,–,–,–,–
CCCCCO[C@H]1[C@H](C)OC(=O)[C@@H](NC(=O)c2nccc(OC)c2OCOC(C)=O)CCC[C@@H]1OC1CCCC1 [F166],80 to 100,80 to 100,0 to 80,80 to 100,80 to 100,80 to 100,80 to 100,80 to 100,–,–,–,–,–
COc1ccnc(C(=O)N[C@H]2CCC[C@H](OCCCC(F)(F)F)[C@@H](OC3CCCC3)[C@H](C)OC2=O)c1OCOC(C)=O [F172],80 to 100,80 to 100,0 to 80,80 to 100,80 to 100,80 to 100,80 to 100,80 to 100,–,–,–,–,–
COc1ccc(O[C@H]2CCC[C@H](NC(=O)c3nccc(OC)c3OCOC(C)=O)C(=O)O[C@@H](C)[C@@H]2OC2CCCC2)cc1 [F170],80 to 100,80 to 100,0 to 80,80 to 100,80 to 100,0 to 80,80 to 100,80 to 100,–,–,–,–,–
